Measurements taken from article PMC7391726, “Fatty acid mimetic PBI-4547 restores metabolic homeostasis via GPR84 in mice with non-alcoholic fatty liver disease” (Scientific Reports, 2020).

Tests used:
GPR84 = biological target: T1, GPR84 (Homo sapiens, UniProt Q9NQS5); assay: BRET Gαi2 activation biosensor in HEK293 cells transfected with GPR84; type: cell-based
T1 construct: expressed in transfected cells; host or cells: HEK293
From the text: PBI-4547 (2-[3,5-dipentylphenyl]acetate sodium salt) is a medium-chain FA (MCFA) mimetic (Fig. 1A). Accordingly, we examined the signaling properties of PBI-4547 on receptors known to be activated by MCFAs. […] This biosensor consisted of an Rluc8-tagged Gαi2 subunit, a GFP10-tagged Gγ2 subunit, and an untagged Gβ1. Agonist stimulation and receptor activation triggers a physical separation between the Gα-Rluc8 donor and the GFP10-Gγ2 acceptor, resulting in a decrease in BRET signal, whose amplitude is correlated to ligand efficacy. […] (A) Chemical structure of PBI-4547. (B) Gi pathway activation was monitored in HEK293 cells transfected with GPR84 and the Gαi2 activation biosensor. […] (C) β-arrestin 2 recruitment to activated GPR120 receptor was monitored in HEK293 cells transfected with RLuc8-β-arrestin 2 and GPR120-GFP10. (D) Cells transfected with GPR40 and Gαq or Gαi2 activation biosensor were exposed to increasing concentrations of PBI-4547 or to 500 µM of sodium decanoate, and BRET variation compared with vehicle was measured. Cells were exposed to increasing concentrations of PBI-4547 or to 100 µM of GW9508, and BRET variation compared with vehicle was measured. (E) LanthaScreen TR-FRET competitive binding assay of PBI-4547 and PPAR control agonists to the LBD of PPARα, PPARδ and PPARγ. (F) Cell-based GAL4 transactivation assay in HEK293 cells transfected with the LBD of PPARα, PPARδ or PPARγ, and treated with increasing concentrations of PBI-4547 or PPAR control agonists. Data in (B–D) are expressed as means ± SEM of 4–5 experiments; data in (E,F) are from a representative experiment from a total of 3 to 4 independent experiments. BRET measurements in transiently transfected HEK293 cells were performed as previously described. Ligands were incubated with cells at room temperature for 10 min (G protein biosensors) or 25 min (β-arrestin/GPR120) before collecting BRET[2] readings between Rluc8 and GFP10.

HepG2 hepatocytes = assay: 14C-palmitate β-oxidation rate in HepG2 hepatocytes; type: cell-based
Description: Moreover, hepatic expression of several genes involved in glucose metabolism including Pklr (pyruvate kinase L/R), G6pc (glucose-6-phosphatase, catalytic) and Slc2a2 (Glut2) was normalized by PBI-4547 (Fig. 4B). […] To test this hypothesis, mitochondrial respiration in HepG2 hepatocytes was measured (Fig. 4C). […] However, it did decrease maximal respiration and ATP production, in agreement with the metabolomics results.
Figure 4 Effects of PBI-4547 on glucose and FA metabolism in liver. (A) Relative gene expression levels of glucose and FA-related metabolism in liver from STD, HFD and HFD + PBI-4547 mice. Data are presented as geometric mean ± SEM (n ≥ 6 per group, one-way ANOVA with Dunnett’s multicomparison test vs HFD group). (B) 1H-NMR metabolic profiling in liver tissues. (C) Oxygen Consumption Rate (OCR) and Extracellular Acidifcation Rate (ECAR) in HepG2 hepatocytes. Measurements of basal respiration, maximal respiration, ATP production and proton leak in HepG2 hepatocytes treated or not with PBI-4547. (D) Oxidation rate of ^14C-palmitate in HepG2 hepatocytes treated or not with PBI-4547. Data are presented as mean ± SEM (n = 3, Student t test Ctrl vs PBI-4547). See also Fig. S2.

PPARγ = biological target: T2, PPARγ (Homo sapiens, UniProt P37231); assay: Cell-based GAL4 transactivation assay in HEK293 cells, PPARγ LBD
T2 construct: PPARγ (S176–Y477); expressed in transfected cells; host or cells: HEK293
T2 sequence (P37231 176-477 isoform P37231-2): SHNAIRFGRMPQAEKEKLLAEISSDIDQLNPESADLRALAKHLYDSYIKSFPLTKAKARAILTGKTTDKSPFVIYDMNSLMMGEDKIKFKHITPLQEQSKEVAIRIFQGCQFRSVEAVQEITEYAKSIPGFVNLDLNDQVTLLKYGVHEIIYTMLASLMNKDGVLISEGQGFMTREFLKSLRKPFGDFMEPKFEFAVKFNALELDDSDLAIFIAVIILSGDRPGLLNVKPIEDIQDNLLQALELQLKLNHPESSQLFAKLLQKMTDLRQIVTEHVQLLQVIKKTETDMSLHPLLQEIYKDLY
From the text: To determine the transcriptional activity of PBI-4547, a cell-based GAL4 transactivation assay in HEK293 cells transfected with either PPARα, PPARδ, or PPARγ LBD was used. […] However, PBI-4547 only partially activated PPARγ transcriptional activity, with a relative maximal efficacy of 38% of the control agonist rosiglitazone.
Generation of the Gαi2, Gαq, and GPR40/β-arrestin-2 BRET biosensors have been described previously. A plasmid encoding the human GPR120-L (long isoform) cDNA was obtained from R&D Systems. GPR120-S (short isoform) was generated by replacing the BglII-BsgI fragment from GPR120-L by a gBlock gene fragment (Integrated DNA Technologies, Coralville, IA) lacking the DNA sequence corresponding to the extra 16 amino acids found in the third intracellular loop of the long form. The GPR120-GFP10 construct was generated by inserting PCR-amplified GPR120-S (without its stop codon) in place of GPR40 in the GPR40-GFP10 plasmid. […]
HEK293 cells were co-transfected with pGL4.35[luc2P/9XGAL4UAS/Hygro] and GAL4-PPAR-Rluc plasmids, and after 24 h of incubation were treated with compounds for 24 h. Luciferase activity was determined with the Dual Glo luciferase assay (Promega). Firefly luminescence was normalized to the constitutively expressed Renilla luminescence, and results expressed as fold induction of vehicle control.

T1 sequence (Q9NQS5 whole entry, species assumed): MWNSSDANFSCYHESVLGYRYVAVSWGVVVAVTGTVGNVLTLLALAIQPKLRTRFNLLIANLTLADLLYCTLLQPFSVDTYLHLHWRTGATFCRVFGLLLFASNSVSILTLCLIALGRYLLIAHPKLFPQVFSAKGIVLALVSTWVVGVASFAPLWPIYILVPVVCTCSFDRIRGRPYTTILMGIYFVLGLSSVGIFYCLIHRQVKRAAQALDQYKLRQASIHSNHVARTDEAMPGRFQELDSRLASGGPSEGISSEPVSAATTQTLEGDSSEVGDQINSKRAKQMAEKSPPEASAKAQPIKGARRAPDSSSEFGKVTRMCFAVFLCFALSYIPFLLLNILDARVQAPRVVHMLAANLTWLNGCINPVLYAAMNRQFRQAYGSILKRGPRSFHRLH

IC50 (GPR84; co-treated with 125 mM sodium decanoate and increasing concentrations of PBI-4547, read-out: IC50, inhibition of GPR84/Gαi2 activation): 17 µM
EC50 (PPARγ; HEK293, 24 h, read-out: EC50, PPARγ transcriptional activity): 3.6 µM
Emax (PPARγ; HEK293, of the control agonist rosiglitazone, read-out: relative maximal efficacy, PPARγ transcriptional activity): 38%
Structure (SMILES): CCCCCc1cc(CCCCC)cc(CC(=O)[O-])c1.[Na+] [PBI-4547, 2-[3,5-dipentylphenyl]acetate sodium salt]
GPR84/Gαi2-mediated BRET signal modulation (agonist mode) (GPR84; compound alone vs vehicle): did not lead to GPR84/Gαi2-mediated BRET signal modulation
oxidation of 14C-palmitate (β-oxidation rate) (HepG2 hepatocytes): dose-dependently increased
